This is an account of results in article PMC10458312, “Xanthones with Potential Anti-Inflammatory and Anti-HIV Effects from the Stems and Leaves of Cratoxylum cochinchinense” (Molecules, 2023).

One series concerns HIV-1IIIB. The experiment in a line: Inhibition assay for the cytopathic effects of HIV-1 (syncytia formation) in C8166 cells. To be noted: for TI (therapeutic index) = CC50/EC50: CC50 in C8166 / EC50 against HIV-1; for EC50: Human immunodeficiency virus 1, C8166, 72 h, read-out: EC50 (50% effective concentration), anti-HIV-1. On the procedure: All isolated xanthones 1–12 were assessed for their anti-HIV reverse transcriptase (RT) effects according to the inhibition assay for the cytopathic activities of HIV-1 (EC50) as well as the cytotoxic activities assay against C8166 cell line (CC50) according to MTT methods.
All isolated xanthones 1–12 were assessed for their anti-HIV-1 reverse transcriptase (RT) effects in vitro on the basis of the inhibition assay for the cytopathic effects of HIV-1 (EC50), in light of the protocol which is described in detail in the Supplementary Material of our current article, in which AZT (3′-azido-3′-deoxythymidine) was adopted as the positive control. All isolated xanthones 1–12 and the positive control (AZT) were also evaluated for their cytotoxic activities against C8166 cells (CC50) on the basis of the MTT method. […]
(§1) Anti-HIV-1 activity bioassays
Cytotoxicity against C8166 cells (CC50) was assessed using the MTT method, and anti-HIV-1 activity was evaluated by the inhibition assay for the cytopathic effects of HIV-1 (EC50). Briefly, cells were seeded on a microtiter plate in the absence or presence of various concentrations of compounds in triplicate and incubated at 37 °C in a humid atmosphere of 5% CO2 for three days.
20.0 μL MTT reagent (5.0 mg/mL in PBS) was added to each well, then incubated at 37 °C for 4 h, 50% DMF-20% SDS (100.0 μL) was added. After the formazan was dissolved completely, the plates were read on a Bio-Tek ELx 800 ELISA reader at 595 nm/630 nm (A595/630). The cytotoxic concentration that caused the reduction of viable cells by 50% (CC50) was calculated from dose–response curve. In 100.0 μL various concentrations of compounds, C8166 cells (4×10^5/mL) were infected with virus (HIV-1IIIB) at a multiplicity of infection (M. O. I) of 0.06. The final volume per well was 200.0 μL. Control assays were performed without the testing compounds in HIV-1IIIB infected and uninfected cultures. AZT (3′-azido-3′-deoxythymidine) was used as a positive control. After three days of culture, the cytopathic effect (CPE) was measured by counting the number of syncytia (multinucleated giant cell). Percentage inhibition of syncytia formation was calculated and 50% effective concentration (EC50) was calculated. The therapeutic index (TI) was calculated from the ratio of CC50/EC50.

Series [1] is described as follows: MTT cytotoxicity assay against C8166 cells. It is filed as cell-based. To be noted: human. As for the experimental part:
as §1
50% DMF-20% SDS (100.0 μL) was added. After the formazan was dissolved completely, the
volume per well was 200.0 μL. Control assays were performed without the testing compounds in
HIV-1IIIB infected and uninfected cultures. […]

The test system of series [2] is NO production induced by lipopolysaccharide in mouse macrophage RAW 264.7 cells. The series is described as follows: Inhibition of NO production induced by lipopolysaccharide in RAW 264.7 cells (Griess reaction). It is filed as cell-based. To be noted: RAW264.7, LPS-induced RAW 264.7 cells, 24 h, mean ± SD of triplicate determinations, read-out: IC50 (50% inhibitory concentration on NO production).

Setting [3] is: C8166 cells, C8166 cell line, MTT, three days, read-out: CC50 (50% cytotoxic concentration).

Each structure is given as a SMILES string. Like-named read-outs stand apart in the source and are kept apart here.

Consider `Cc1cn([C@H]2C[C@H](N=[N+]=[N-])[C@@H](CO)O2)c(=O)[nH]c1=O` [AZT, 3′-azido-3′-deoxythymidine, reference compound], for which, in the series with HIV-1IIIB, the “TI (therapeutic index) = CC50/EC50” value is reported as 193,371.51 and the EC50 turned out to be 0.0208 µM. The CC50 at 3 days in series [1] worked out at 4020 µM.
As for `C=C(C)C(O)CCC(C)=CCc1c(O)c(CC=C(C)C)c(O)c2c(=O)c3cc(O)ccc3oc12` (stereo not shown) [Compound 1, Cratocochinone A], in the series with HIV-1IIIB, the “TI (therapeutic index) = CC50/EC50” value is greater than 909.09 and the EC50 was determined as 0.22 µM. In addition, the CC50 at 3 days in series [1] (setting [3]) was greater than 200 µM. The IC50 in series [2] was 1.29 ± 0.06 µM.
Consider `COc1ccc2c(=O)c3c(O)cc4c(c3oc2c1O)C(C)(C)C(CO)O4` (stereo not shown) [Compound 2, Cratocochinone B], for which, in the series with HIV-1IIIB, the “TI (therapeutic index) = CC50/EC50” value was greater than 294.12 and the EC50 turned out to be 0.68 µM. Moreover, the CC50 at 3 days in series [1] (setting [3]) is greater than 200 µM. Further, the IC50 in series [2] worked out at 2.17 ± 0.09 µM.
Take `COc1ccc2c(=O)c3c(OC)c(OC)c(O)cc3oc2c1O` [Compound 3, Cratocochinone C]: in the series with HIV-1IIIB, the “TI (therapeutic index) = CC50/EC50” value is reported as greater than 105.82 and the EC50 was determined as 1.89 µM. In series [1] (setting [3]), the CC50 at 3 days is greater than 200 µM. Further, the IC50 in series [2] was found to be 0.86 ± 0.05 µM.
On the same counts, the results for `COc1ccc2c(=O)c3cc(O)c(OC)c(O)c3oc2c1OC` [Compound 4, Cratocochinone D] are greater than 49.14, 4.07 µM, greater than 200 µM and 9.42 ± 0.13 µM.
Take `CC(C)=CCC/C(C)=C/Cc1c(O)c(CC=C(C)C)c(O)c2c(=O)c3c(O)ccc(O)c3oc12` [Compound 5, 1,3,5,8-tetrahydroxy-2-(3-methybut-2-enyl)-4-(3,7-dimethylocta-2,6-dienyl) xanthone]: in the series with HIV-1IIIB, the “TI (therapeutic index) = CC50/EC50” value was greater than 79.05 and the EC50 stood at 2.53 µM. Also, in series [1] (setting [3]), the CC50 at 3 days was greater than 200 µM. In addition, the IC50 in series [2] worked out at 6.47 ± 0.1 µM.
`CC1(C)c2c(cc(O)c3c(=O)c4ccc(O)c(O)c4oc23)O[C@H]1CO` [Compound 6, cochinchinone P]: in the series on HIV-1IIIB, the “TI (therapeutic index) = CC50/EC50” value was greater than 64.94 and the EC50 was found to be 3.08 µM. In series [1] (setting [3]), the CC50 at 3 days is greater than 200 µM. Moreover, in series [2], the IC50 was 8.35 ± 0.15 µM.
On the same counts, the results for `C[C@@H]1Oc2cc(O)c3c(=O)c4cc(O)c(O)c(O)c4oc3c2C1(C)C` [Compound 7, 2-deprenyl-7-hydroxy-rheediaxanthone] are greater than 48.08, 4.16 µM, greater than 200 µM and 12.58 ± 0.12 µM.
Consider `COc1cc2c(c3oc4c5c(ccc4c(=O)c13)OCO5)C=CC(C)(C)O2` [Compound 8, musaxanthone], for which, in the series with HIV-1IIIB, the “TI (therapeutic index) = CC50/EC50” value is listed as greater than 22.45 and the EC50 was 8.91 µM. Further, in series [1] (setting [3]), the CC50 at 3 days is greater than 200 µM. Moreover, in series [2], the IC50 was found to be 4.16 ± 0.08 µM.
Consider `COc1c(O)cc2oc3ccc(O)c(OC)c3c(=O)c2c1OC` [Compound 9, 3,7-dihydroxy-1,2,8-trimethoxy-9H-xanthen-9-one], for which, in the series on HIV-1IIIB, the “TI (therapeutic index) = CC50/EC50” value is greater than 37.59 and the EC50 came out at 5.32 µM. Also, the CC50 at 3 days in series [1] (setting [3]) was greater than 200 µM. Besides, the IC50 in series [2] worked out at 18.4 ± 0.21 µM.
For `COc1cc(O)c2c(=O)c3c(OC)c(OC)c(O)cc3oc2c1` [Compound 10, 3,8-dihydroxy-1,2,6-trimethoxy-9H-xanthen-9-one], in the series on HIV-1IIIB, the “TI (therapeutic index) = CC50/EC50” value is recorded as greater than 74.91 and the EC50 was found to be 2.67 µM. Also, the CC50 at 3 days in series [1] (setting [3]) is greater than 200 µM. Further, the IC50 in series [2] amounted to 7.47 ± 0.11 µM.
In the case of `COc1cc2oc3c(O)ccc(OC)c3c(=O)c2c(O)c1OC` [Compound 11, 1,5-dihydroxy-2,3,8-trimethoxy-9H-xanthen-9-one], in the series with HIV-1IIIB, the “TI (therapeutic index) = CC50/EC50” value is reported as greater than 17.81 and the EC50 worked out at 11.2 µM. Further, the CC50 at 3 days in series [1] (setting [3]) was greater than 200 µM. Moreover, in series [2], the IC50 is 3.16 ± 0.09 µM.
In the case of `COc1c(O)cc2oc3cc(O)c(OC)c(OC)c3c(=O)c2c1O` [Compound 12, 1,3,6-trihydroxy-2,7,8-trimethoxy-9H-xanthen-9-one], in the series with HIV-1IIIB, the “TI (therapeutic index) = CC50/EC50” value was greater than 31.50 and the EC50 was determined as 6.35 µM. Also, the CC50 at 3 days in series [1] (setting [3]) is greater than 200 µM. Moreover, the IC50 in series [2] worked out at 6.21 ± 0.08 µM.
Consider `C[C@]12CCC(=O)C=C1CC[C@@H]1[C@@H]2[C@@H](O)C[C@@]2(C)[C@H]1CC[C@]2(O)C(=O)CO` [Hydrocortisone, reference compound], for which the IC50 in series [2] was 4.08 ± 0.08 µM.
